Values after ≈ are worked out from the molar mass of the structure shown.
Assays:
[1] = physchem; details: for solubility at 24 h: kinetic from dmso stock
Summary of the method: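 DMSO doubling dilutions were diluted twenty-fold into 100 mM citrate (pH 4), PBS (pH 7.4) or carbonate-bicarbonate (pH 9). After 24 h equilibration at room temperature, absorbance was read at 620 nm. The reported value is the highest concentration without measurable precipitate.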

[2] = tested on: Staphylococcus aureus (Isolate ID ATCC 29213); assay: Antibacterial activity, MIC, S. aureus; type: cell-based; details: broth microdilution or agar dilution; for MIC: Staphylococcus aureus, ATCC29213, Gram positive strain
Summary of the method: (§1)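 Readout is the MIC, established according to CLSI standard M7-A7 using either agar dilution or broth microdilution.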

[3] = tested on: Enterococcus faecalis (Isolate ID ATCC 29212); assay: Antibacterial activity, MIC, E. faecalis; type: cell-based; details: Gram positive strain, broth microdilution or agar dilution; for MIC: Enterococcus faecalis, ATCC29212
Summary of the method: as §1

[4] = tested on: Streptococcus pyogenes (Isolate ID ATCC 51339); assay: Antibacterial activity, MIC, S. pyogenes; type: cell-based; details: broth microdilution or agar dilution; for MIC: Streptococcus pyogenes, ATCC51339, Gram positive strain
Summary of the method: as §1

[5] = tested on: Haemophilus influenzae (Isolate ID ATCC 49247); assay: Antibacterial activity, MIC, H. influenzae; type: cell-based; details: Gram negative strain, broth microdilution or agar dilution; for MIC: Haemophilus influenzae, ATCC49247
Summary of the method: as §1

[6] = pH 7.4, aqueous buffer, Max Solubility
[7] = pH 7.4, aqueous buffer, Solubility (pH 7.4)
[8] = pH 7.4, aqueous buffer, Solubility Range
[9] = pH 7.4, aqueous buffer, Solubility Range (maximum solubility)
[10] = pH 9, aqueous buffer, Max Solubility
[11] = pH 9, aqueous buffer, Solubility Range (maximum solubility)

solubility at 24 h [1, 6] [µg/mL] | solubility at 24 h [1, 7] [µg/mL] | solubility at 24 h [1, 8] [µg/mL] | solubility at 24 h [1, 9] [µg/mL] | MIC [2] [µg/mL] | MIC [3] [µg/mL] | MIC [4] [µg/mL] | MIC [5] [µg/mL] | Max Solubility ([1]; pH 7.4) | Solubility (pH 7.4) ([1]; pH 7.4) | Antibacterial Activity (MIC) S. aureus (ATCC 29213) ([2]; Gram positive strain) | Antibacterial Activity (MIC) E. faecalis (ATCC 29212) [3] | Antibacterial Activity (MIC) S. pyogenes (ATCC 51339) ([4]; Gram positive strain) | Antibacterial Activity (MIC) H. influenzae (ATCC 49247) [5] | solubility at 24 h [1, 10] [µg/mL] | solubility at 24 h [1, 11] [µg/mL] | Structure (SMILES)
≥ 800 | ≥ 800 | > 800 | > 800 | ≤ 0.25 | ≤ 0.25 | ≤ 0.25 | 1 to 16 (≈ 1.8 to 28.7 µM) |  |  |  |  |  |  |  |  | CCNC(=O)Nc1nc2cc(-c3cnc(N4CCC(CC)(C(=O)O)CC4)nc3)cc(-c3ccc(C#N)cn3)c2s1 [Compound 105]
 |  |  |  |  |  |  |  | ≧800 μg/mL | ≧800 μg/mL | A (“A” activity ≦0.25 μg/mL) | A (“A” activity ≦0.25 μg/mL) | B (“B” activity >0.25 μg/mL-1.0 μg/mL) | D (“D” activity >16 μg/mL) |  |  | CCNC(=O)Nc1nc2cc(-c3cnc(N4CCC(CC)(C(=O)OCC)CC4)nc3)cc(Br)c2s1 [Compound 107]
100 (≈ 220 µM) | 100 (≈ 220 µM) | 12.5 to 400 (≈ 27.5 to 880 µM) | 12.5 to 400 (≈ 27.5 to 880 µM) | 1 to 16 (≈ 2.2 to 35.2 µM) | 0.25 to 1 (≈ 0.55 to 2.2 µM) | 1 to 16 (≈ 2.2 to 35.2 µM) | > 16 |  |  |  |  |  |  |  |  | CCNC(=O)Nc1nc2cc(-c3cnc(N4CCC(CC)(C(=O)O)CC4)nc3)ccc2s1 [Compound 113]
400 (≈ 741 µM) | 400 (≈ 741 µM) | 400 to 800 (≈ 741 to 1480 µM) | 400 to 800 (≈ 741 to 1480 µM) | 1 to 16 (≈ 1.85 to 29.6 µM) | ≤ 0.25 | 1 to 16 (≈ 1.85 to 29.6 µM) | > 16 |  |  |  |  |  |  |  |  | CCNC(=O)Nc1nc2cc(-c3cnc(N4CCC(CC)(C(=O)O)CC4)nc3)cc(N3CCOCC3)c2s1 [Compound 114, 4-ethyl-1-[5-[2-(ethylcarbamoylamino)-7-morpholino-1,3-benzothiazol-5-yl]pyrimidin-2-yl]piperidine-4-carboxylic acid]
 | 400 (≈ 729 µM) | 400 to 800 (≈ 729 to 1460 µM) |  | ≤ 0.25 | ≤ 0.25 | 1 to 16 (≈ 1.82 to 29.2 µM) | > 16 |  |  |  |  |  |  | ≥ 800 | > 800 | CCNC(=O)Nc1nc2cc(-c3cnc(N4CCC(CC)(C(=O)O)CC4)nc3)cc(-c3ccc(F)cc3)c2s1 [Compound 115]

Further lines, the compound ahead of its results:

Structure (SMILES) | solubility at 24 h [1, 6] [µg/mL] | solubility at 24 h [1, 7] [µg/mL] | solubility at 24 h [1, 8] [µg/mL] | solubility at 24 h [1, 9] [µg/mL] | MIC [2] [µg/mL] | MIC [3] [µg/mL] | MIC [4] [µg/mL] | MIC [5] [µg/mL] | Max Solubility ([1]; pH 7.4) | Solubility (pH 7.4) ([1]; pH 7.4) | Antibacterial Activity (MIC) S. aureus (ATCC 29213) ([2]; Gram positive strain) | Antibacterial Activity (MIC) E. faecalis (ATCC 29212) [3] | Antibacterial Activity (MIC) S. pyogenes (ATCC 51339) ([4]; Gram positive strain) | Antibacterial Activity (MIC) H. influenzae (ATCC 49247) [5] | solubility at 24 h [1, 10] [µg/mL] | solubility at 24 h [1, 11] [µg/mL]
CCNC(=O)Nc1nc2cc(-c3cnc(N4CCC(CC)(C(=O)O)CC4)nc3)cc(-c3ncnc4[nH]ccc34)c2s1 [Compound 106] | ≥ 800 | ≥ 800 | > 800 | > 800 | 0.25 to 1 (≈ 0.437 to 1.75 µM) | ≤ 0.25 | ≤ 0.25 | 1 to 16 (≈ 1.75 to 28 µM) |  |  |  |  |  |  |  | 
CCNC(=O)Nc1nc2cc(-c3cnc(N4CCC(CC)(C(=O)O)CC4)cn3)cc(-c3ccccn3)c2s1 [Compound 108] | ≥ 800 | ≥ 800 | > 800 | > 800 | ≤ 0.25 | ≤ 0.25 | ≤ 0.25 | 1 to 16 (≈ 1.88 to 30.1 µM) |  |  |  |  |  |  |  | 
CCNC(=O)Nc1nc2cc(-c3cnc(N4CCC(CC)(C(=O)O)CC4)nc3)cc(-c3nccc(OC)n3)c2s1 [Compound 109] | ≥ 800 | ≥ 800 | > 800 | > 800 | ≤ 0.25 | ≤ 0.25 | ≤ 0.25 | > 16 |  |  |  |  |  |  |  | 
CCNC(=O)Nc1nc2cc(-c3cnc(N4CCC(CC)(C(=O)O)CC4)nc3)cc(-c3cc(OC)ncn3)c2s1 [Compound 110] | ≥ 800 | ≥ 800 | > 800 | > 800 | ≤ 0.25 | ≤ 0.25 | ≤ 0.25 | 0.25 to 1 (≈ 0.444 to 1.78 µM) |  |  |  |  |  |  |  | 
CCNC(=O)Nc1nc2cc(-c3cnc(N4CCC(CC)(C(=O)O)CC4)cn3)cc(-c3nccc(C)n3)c2s1 [Compound 112] |  | 25 (≈ 45.7 µM) | 12.5 to 400 (≈ 22.9 to 732 µM) |  | 0.25 to 1 (≈ 0.457 to 1.83 µM) | ≤ 0.25 | ≤ 0.25 | 1 to 16 (≈ 1.83 to 29.3 µM) |  |  |  |  |  |  | 100 (≈ 183 µM) | 12.5 to 400 (≈ 22.9 to 732 µM)
CCCC1(C(=O)O)CCN(c2ncc(-c3cc(-c4ccccn4)c4sc(NC(=O)NCC)nc4c3)cn2)CC1 [Compound 117] |  | 400 (≈ 733 µM) | 400 to 800 (≈ 733 to 1470 µM) |  | ≤ 0.25 | ≤ 0.25 | ≤ 0.25 | 1 to 16 (≈ 1.83 to 29.3 µM) |  |  |  |  |  |  |  | 
CCCC1(C(=O)O)CCN(c2ncc(-c3cc(-c4cnccn4)c4sc(NC(=O)NCC)nc4c3)cn2)CC1 [Compound 118] |  | 400 (≈ 732 µM) | 400 to 800 (≈ 732 to 1460 µM) |  | ≤ 0.25 | ≤ 0.25 | ≤ 0.25 | 1 to 16 (≈ 1.83 to 29.3 µM) |  |  |  |  |  |  | ≥ 800 | > 800
